Experimental data as given in patent US20260108480A1, “METHODS FOR INDUCING PROLIFERATION OF STEM CELLS” (UNIVERSITY OF PITTSBURGH-OF THE COMMONWEALTH SYSTEM OF …, priority 2022, published 2026).
“Also recorded” adds a separate entry of the source.

Key:
[1] = tested on: GFP+ (PRX1 expressing) and GFP- cells of explanted calvarial sutures of PRX1-creER-EGFP+/+ mice; assay: FAC-sorting analysis of tissue-cultured explanted sutures (ex vivo); assay type: cell-based, mouse
Description: (§1) FIGS. 22A-22H. […] (22A-22B) MTT proliferation assays of primary PRX1 expressing cells isolated from the calvarial sutures of PRX1-creER-EGFP+/+ mice. […] (22C) MTT proliferation assays of immortalized PRX1 expressing cells isolated from the calvarial sutures of PRX1-creER-EGFP+/+ mice. […] (22D-22F) Quantitative RT-PCR of osteoblast differentiation genes of immortalized PRX1 expressing cells isolated from the calvarial sutures of PRX1-creER-EGFP+/+ mice. […] (22G-22H) FAC-sorting analysis of tissue-cultured sutures isolated from of PRX1-creER-EGFP+/+ mice. Suture were explanted and cultured ex vivo.
However, no increase of GFP-cells (22H) is detected. All above studies (22A-22E) were repeated 2 or 3 times, with consistent results.
WNT inhibitor candidates were identified by looking into cancer studies, as thousands of small molecules have been screened for their potential to inhibit WNT signaling in WNT-activated cancer cells (30). Several molecules have shown inhibition of canonical WNT activity in vitro but only few have been tested in vivo, in mice. Among those tested in vivo, 5 were selected because of their proven efficacy and safety: G007-LK (31), Pyrvinium (25,26), Quercetin (32,33), XAV939 (27), and Niclosamide (34). […]

[2] = tested on: periodontal ligament stem cells expressing Prx1 from mouse incisors; assay: Flow cytometry quantification of Prx1 (GFP) expressing periodontal ligament cells in vitro; assay type: cell-based; conditions: 48 hours
Description: To perform these studies, transgenic mice was utilized expressing green fluorescent protein (GFP) under the Prx1 promoter. Thus, using these transgenic mice, quantification of GFP expressing cells by means of flow cytometry can be utilized to quantify Prx1 expressing cells.

[3] = tested on: critical size calvarial bone defect; assay: Local delivery absorbed into a collagen sponge into critical size calvarial bone defect, μCT; assay type: in vivo, mouse; conditions: collagen sponge carrying 5 μg or 50 μg
Method: To test whether Niclosamide can induce bone regeneration when delivered by means of a collagen sponge instead of a methylcellulose gel, a critical size calvarial bone defect was created (2 mm in diameter) in the right parietal bone of skeletally mature C57Bl/6 female mice (8 week old mice). Immediately after creation of the defect, 5 μL of a 1 pg/pl solution of Niclosamide (dissolved in DMSO) or 5 μl of a 10 μg/μl solution of Niclosamide (dissolved in DMSO) were absorbed into a 1 mm×1 mm×1 mm collagen sponge. Then, the sponge carrying either 5 μg or 50 μg of Niclosamide was implanted into the calvarial bone defects (n=3). Bone defects of the control groups received collagen sponges absorbed with equal volumes (5 μl) of DMSO only Bone regeneration was assessed by means of μCT, 8 weeks after surgery (FIGS. 27A-27C) 3D rendering, (FIG. 27D) quantitative assessment of the regenerated Bone Volume (BV) within the Total Volume (TV) of the calvarial bone defects).

[4] = tested on: critical size calvarial bone defect; assay: Local delivery in carboxymethylcellulose gel into critical size calvarial bone defect, μCT; assay type: in vivo, mouse; conditions: 2 mm defect, 8 week old C57Bl/6 female mice, 10 μL 12% carboxymethylcellulose gel containing 100 μg niclosamide, 4 weeks after surgery, n=3
Method: Immediately after creation of the defect, 10 μL of a 12% carboxymethylcellulose gel (CONTROL) (24A) or 10 μL of a 12% carboxymethylcellulose gel containing 100 μg of niclosamide (TEST) (24B) were implanted within the bone defect. […] Student's t-test was used for statistical evaluation (n=3, ** indicates p<0.01). […] Immediately after creation of the defect, 10 μL of a 12% carboxymethylcellulose gel (CONTROL) or 10 μL of a 12% carboxymethylcellulose gel containing 100 g of niclosamide (TEST) were implanted within the bone defect (FIGS. 24A-24B). Bone regeneration was assessed by means of μCT, 4 weeks after surgery (FIG. 25). Student's t-test was used for statistical evaluation (n=3, ** indicates p<0.01).

[5] = tested on: osteoblast differentiation genes (RUNX2, SP7, Osteocalcin) in immortalized PRX1 expressing cells; assay: Quantitative RT-PCR of osteoblast differentiation genes in immortalized PRX1 expressing cells; assay type: cell-based, mouse
Description: as §1
(§2) WNT inhibitor candidates were identified by looking into cancer studies, as thousands of small molecules have been screened for their potential to inhibit WNT signaling in WNT-activated cancer cells (30). Several molecules have shown inhibition of canonical WNT activity in vitro but only few have been tested in vivo, in mice. Among those tested in vivo, 5 were selected because of their proven efficacy and safety: G007-LK (31), Pyrvinium (25,26), Quercetin (32,33), XAV939 (27), and Niclosamide (34). Actually, Niclosamide and Pyrvinium are anti-helminthic FDA-approved drugs (35,36) and Quercetin is a flavonol found in many fruits and vegetables that is used as an ingredient in supplements, beverages, or foods (33). […] Previous studies indicate that Niclosamide, besides inhibiting the WNT pathway, presents with various additional effects such as uncoupling oxidative phosphorylation and disrupting several different signaling pathways, including the NOTCH, mTORCT, NFkB, and STAT3 pathways (38-44).

[6] = tested on: primary PRX1 expressing SSCs isolated from the calvarial sutures of PRX1-creER-EGFP mice; assay: MTT proliferation assay of primary PRX1 expressing cells isolated from calvarial sutures; assay type: cell-based, mouse; conditions: for ability to induce proliferation of primary PRX1 expressing SSCs (screen of 5 WNT inhibitors): most effective concentrations of previous studies, FIGS. 22A-22B
Description: as §1, §2

PRX1 expressing SSCs = assay: In vivo flow cytometry quantification of PRX1 expressing SSCs after IP treatment; design: species or system mouse; conditions: 8-week old mice, 20 mg/Kg IP, 5 days/week
Method: (§3) FIGS. 23A-23D. […] (23A-23C) Flow cytometry was utilized to quantify the number of PRX1 expressing SSCs after treatment with Niclosamide (20 mg/kg of body weight, IP, 5 days/week, for 3 consecutive weeks) or with vehicle (control) in calvarial sutures (23A), in the periosteum of long bones (23B), and in the periodontal ligament of posterior molar teeth (23C). 4 mice/treatment (2 males and 2 females). (23D) Micro-computed tomography was utilized to measure bone mass (BV/TV) in the femurs of male and female mice after treatment with Niclosamide (20 mg/kg of body weight, IP, 5 days/week for 3 consecutive weeks) or with vehicle (control) (n=2). […] To do so, skeletally mature 8-week old mice were treated with intraperitoneal (IP) injections of Niclosamide (20 mg/Kg of body weight) or vehicle (control) 5 days/week, for 3 weeks (FIGS. 23A-23D).

[7] = Micro-computed tomography of femur bone mass (BV/TV) after IP treatment; assay type: in vivo, mouse; conditions: male and female mice, 20 mg/Kg IP, 5 days/week, 3 weeks (FIG. 23D)
Method: as §3

[8] = tested on: immortalized PRX1 expressing cells isolated from the calvarial sutures of PRX1-creER-EGFP+/+ mice; assay: MTT proliferation assay of immortalized PRX1 expressing cells; assay type: cell-based, mouse; conditions: after 48 hours (FIG. 22C)
Description: as §1
WNT inhibitor candidates were identified by looking into cancer studies, as thousands of small molecules have been screened for their potential to inhibit WNT signaling in WNT-activated cancer cells (30). Several molecules have shown inhibition of canonical WNT activity in vitro but only few have been tested in vivo, in mice. Among those tested in vivo, 5 were selected because of their proven efficacy and safety: G007-LK (31), Pyrvinium (25,26), Quercetin (32,33), XAV939 (27), and Niclosamide (34). Actually, Niclosamide and Pyrvinium are anti-helminthic FDA-approved drugs (35,36) and Quercetin is a flavonol found in many fruits and vegetables that is used as an ingredient in supplements, beverages, or foods (33). […]

Row | SMILES | GFP+ cells (PRX1 expressing cells) in explanted sutures ([1]; 2 weeks of incubation (FIG. 22G)) | GFP- cells (other cells of the sutures) in explanted sutures ([1]; 2 weeks of incubation (FIG. 22H)) | number of Prx1 expressing (GFP) cells ([2]; 0.2 μM and 2 μM, more significant increases with higher doses) | increase of number of Prx1 expressing (GFP) cells ([2]; 2 μM, flow cytometry (FIG. 26E)) [folds] | regenerated Bone Volume (BV) within Total Volume (TV) of the defect by μCT ([3]; 2 mm defect, 8 week old C57Bl/6 female mice, 8 weeks after surgery, n=3, not statistically significant) | adverse events / general health ([3]; 8 weeks) | bone regeneration by μCT [4] | osteoblastic differentiation of PRX1 expressing SSCs (qRT-PCR) ([5]; FIGS. 22D-22F) | expression of RUNX2 (qRT-PCR) ([5]; immortalized PRX1 expressing cells, after 48 hours (FIG. 22D)) | expression of SP7 (qRT-PCR) ([5]; immortalized PRX1 expressing cells, after 48 hours (FIG. 22E)) | expression of Osteocalcin (OCN) (qRT-PCR) ([5]; immortalized PRX1 expressing cells, after 48 hours (FIG. 22F)) | proliferation (MTT) of primary PRX1 expressing cells ([6]; after 24 hours (FIG. 22A)) | proliferation (MTT) of primary PRX1 expressing cells ([6]; after 48 hours (FIG. 22B)) | effect on proliferation compared with the other screened molecules ([6]; comparison with Pyrvinium and Quercetin) | ability to induce proliferation of primary PRX1 expressing SSCs (screen of 5 WNT inhibitors) [6] | proliferation of PRX1 expressing SSCs in the calvarial sutures (PRX1 expressing SSCs; 3 weeks (FIG. 23A)) | proliferation of PRX1 expressing SSCs in the periosteum of long bones (PRX1 expressing SSCs; 3 weeks (FIG. 23B)) | proliferation of PRX1 expressing SSCs in the periodontal ligament of the mouse molars (PRX1 expressing SSCs; 3 weeks (FIG. 23C)) | bone mass (BV/TV) of femurs [7] | proliferation (MTT) of immortalized PRX1 expressing cells [8]
1 | O=C(Nc1ccc([N+](=O)[O-])cc1Cl)c1cc(Cl)ccc1O [Niclosamide] | proliferation of the PRX1 expressing SSCs was observed; also recorded: statistically significant increase | could not be detected; also recorded: no increase | increase in number | ~3.5 | trend of increasing of the regenerated bone mass | no adverse events were recorded | substantial amount of bone regeneration | inhibits their osteoblastic differentiation | statistically significant downregulation | statistically significant downregulation | statistically significant downregulation | statistically significant proliferation | statistically significant proliferation | most significant and prolonged effect | able to consistently induce proliferation | induces proliferation | induces proliferation | induces proliferation | does not significantly reduce the bone mass | could induce proliferation; also recorded: statistically significant proliferation
2 | Cc1cc(/C=C/c2ccc3cc(N(C)C)ccc3[n+]2C)c(C)n1-c1ccccc1 [Pyrvinium] | – | – | – | – | – | – | – | – | – | – | – | statistically significant proliferation | statistically significant proliferation | – | able to consistently induce proliferation | – | – | – | – | –
3 | O=c1c(O)c(-c2ccc(O)c(O)c2)oc2cc(O)cc(O)c12 [Quercetin] | – | – | – | – | – | – | – | – | – | – | – | – | – | – | able to consistently induce proliferation | – | – | – | – | –
